Measurements from the OligoGym collection.
“And” between values parts separate entries of the source, which are not always exact repeats. Equal values may be shown once. After the bases stand the sugars from the 5' end (letter, count) and the backbone: PS all phosphorothioate, else s phosphorothioate and o phosphodiester by linkage. Methylation of C is not given here. e = 2'-O-(2-methoxyethyl) (MOE); k = constrained ethyl (cEt); d = 2'-deoxy (DNA); m = 2'-O-methyl

Target: HSD17B13
Conditions: ASO, HepaRG

Row | Sequence | target mRNA inhibition (1 µM) | also measured
1 | GATCATTGCAGAAAGA (sugars k3 d10 k3, PS) | 23% | –
2 | TTAGTTAGAATAGTCT (sugars k3 d9 k3 e1, PS) | 67% | –
3 | TAAGGATCATTGCAGA (sugars k3 d10 k3, PS) | 0% | –
4 | ACAGACTAAGGGACCA (sugars k3 d10 k3, PS) | 68% | –
5 | TTCACAAAAACTGGGC (sugars k3 d10 k3, PS) | 37% | –
6 | GGCATGGCTACAGATT (sugars k3 d10 k3, PS) | 69% | –
7 | ATAGCTAAGTATACTT (sugars k3 d10 k3, PS) | 0% | –
8 | GTACAAATTTATGCCA (sugars k3 d10 k3, PS) | 45% | –
9 | CAATGAGATTACCCCT (sugars k3 d10 k3, PS) | 16% | –
10 | GAATAGGAGAGTCTTT (sugars k3 d10 k3, PS) | 58% | –
11 | TTTCTCTCCATCATCG (sugars k3 d10 k3, PS) | 27% | –
12 | CTTTTAACTACCCTCA (sugars k3 d10 k3, PS) | 16% | –
13 | TCTTCATCCTTGGTGC (sugars k3 d10 k3, PS) | 48% | –
14 | ATGCATAAGAGATGAG (sugars k3 d10 k3, PS) | 30% | –
15 | CAGCCTTAGAGTGAAT (sugars k3 d10 k3, PS) | 82% | target mRNA inhibition (0.02 µM): 6%; target mRNA inhibition (0.078 µM): 23%; target mRNA inhibition (0.313 µM): 36%; target mRNA inhibition (1.25 µM): 73%; target mRNA inhibition (5 µM): 83%
16 | TTCAGTCCTTGTGTAG (sugars k3 d10 k3, PS) | 45% | –
17 | GATTAAGCAGAATTGT (sugars kkdddddddddkekek, PS) | 31% | –
18 | CTACATGACCTGGGTC (sugars k3 d10 k3, PS) | 59% | –
19 | ATATAACATGGCTGGC (sugars k3 d10 k3, PS) | 29% | –
20 | GAAACTTGATCTCTTA (sugars kkdddddddddkekek, PS) | 54% | –
21 | TATGTAATAGGCAGTA (sugars k3 d10 k3, PS) | 62% | –
22 | GTTGAGATAAAGCTGC (sugars k3 d1 m1 d8 k3, PS) | 51% | –
23 | GGCAAACCTTGAATGA (sugars k3 d10 k3, PS) | 61% | –
24 | GGAAATTGTTGCTGTT (sugars k3 d10 k3, PS) | 46% | –
25 | CTCAACAGAGAATTGT (sugars k3 d10 k3, PS) | 29% | –
26 | ACATAGACATGTGTTC (sugars k3 d10 k3, PS) | 35% | –

Row | Sequence | target mRNA inhibition (1 µM) | also measured
27 | GGCAGTAAAGTGCTAA (sugars k3 d10 k3, PS) | 62% | –
28 | CAAGCTACCTCCAAAT (sugars k3 d10 k3, PS) | 25% | –
29 | TATAGTTATCTTCTCA (sugars k3 d9 k3 e1, PS) | 59% | –
30 | AACTACATGACCTGGG (sugars k3 d10 k3, PS) | 27% | –
31 | CTGGAGAAGAGTTTAC (sugars k3 d10 k3, PS) | 38% | –
32 | GCTGGTAAAGGTAAGG (sugars k3 d10 k3, PS) | 65% | –
33 | TATGUGATTGAGTTCT (sugars k3 d1 m1 d8 k3, PS) | 21% | –
34 | AACATCTCTGGGACCA (sugars k3 d9 k3 e1, PS) | 61% | –
35 | GCTACTTGAACAGTCT (sugars k3 d1 m1 d8 k3, PS) | 82% | –
36 | GCTCCATAATAATAGC (sugars k3 d9 k3 e1, PS) | 8% | –
37 | CTCTTGACAATGGTTG (sugars k3 d10 k3, PS) | 50% | –
38 | GGATGTTGACCTCAAA (sugars k3 d10 k3, PS) | 5% | –
39 | CCCCAAACATGGATGT (sugars k3 d10 k3, PS) | 62% | –
40 | ATTACAGCATCAAGAC (sugars k3 d10 k3, PS) | 63% | –
41 | TCTAAAGCAGGCTACT (sugars k3 d10 k3, PS) | 32% | –
42 | GAATCATGATTGAATT (sugars k3 d10 k3, PS) | 39% | –
43 | TGCAACTTTTAGTCAG (sugars k3 d10 k3, PS) | 41% | –
44 | TGCATAAGAGCCAAAC (sugars k3 d10 k3, PS) | 56% | –
45 | TGCACCGTTTTGGGCT (sugars k3 d10 k3, PS) | 36% | –
46 | AATATTGAGGCACTGG (sugars k3 d9 k3 e1, PS) | 36% | –
47 | TACTTACTTCTGTAGT (sugars k3 d10 k3, PS) | 12% | –
48 | ACAATATGGGATGAGG (sugars k3 d10 k3, PS) | 71% | target mRNA inhibition (0.02 µM): 29%; target mRNA inhibition (0.078 µM): 7%; target mRNA inhibition (0.313 µM): 43%; target mRNA inhibition (1.25 µM): 65%; target mRNA inhibition (5 µM): 85%
49 | GTTCTTATCCACACCT (sugars k3 d10 k3, PS) | 57% | –
50 | CATAGTTTATATGGAT (sugars k3 d10 k3, PS) | 56% | –
51 | TCTGATGTCAGACCTC (sugars k3 d10 k3, PS) | 42% | –
52 | TTATTGCCTGAACACA (sugars k3 d10 k3, PS) | 58% | –

Row | Sequence | target mRNA inhibition (1 µM) | also measured
53 | TAGTCTTGATGTAGTG (sugars k3 d10 k3, PS) | 55% | –
54 | TTCCATCTATCAGACT (sugars k3 d9 k3 e1, PS) | 43% | –
55 | TTCTTATGTAATAGCC (sugars k3 d10 k3, PS) | 71% | target mRNA inhibition (0.02 µM): 16%; target mRNA inhibition (0.078 µM): 39%; target mRNA inhibition (0.313 µM): 66%; target mRNA inhibition (1.25 µM): 86%; target mRNA inhibition (5 µM): 96%
56 | TCTTACGACTTCATCT (sugars k3 d10 k3, PS) | 34% | –
57 | GCCCATCCCCTAAGTT (sugars k3 d10 k3, PS) | 33% | –
58 | GACACTAATTTAGTCA (sugars k3 d10 k3, PS) | 11% | –
59 | TTAGGATTAATTCCCT (sugars k3 d10 k3, PS) | 14% | –
60 | CAGTCTTAAACCTTCC (sugars k3 d9 k3 e1, PS) | 74% and 50% | target mRNA inhibition (0.02 µM): 0%; target mRNA inhibition (0.078 µM): 0%; target mRNA inhibition (0.313 µM): 47%; target mRNA inhibition (1.25 µM): 43%; target mRNA inhibition (5 µM): 79%
61 | CCGCCCTTAAGTCATT (sugars k3 d10 k3, PS) | 53% | –
62 | AGGGAATGTTATGTAC (sugars k3 d10 k3, PS) | 49% | –
63 | TAATAGCCAGTACAGT (sugars kkdddddddddkekek, PS) | 44% | –
64 | TAAACCTTCCCTGTGT (sugars k3 d1 m1 d8 k3, PS) | 46% | –
65 | TATGTGAAGAGCTGGT (sugars k3 d10 k3, PS) | 63% | –
66 | GACCATGCTGCTACTC (sugars k3 d10 k3, PS) | 74% | –
67 | CGAATTATTTCTTGCG (sugars k3 d10 k3, PS) | 58% | –
68 | CTAAATTATTGCCTGA (sugars k3 d10 k3, PS) | 39% | –
69 | TTGCAGAAATTCACCT (sugars k3 d9 k3 e1, PS) | 29% | –
70 | TAGTAATTGCATCTGC (sugars k3 d10 k3, PS) | 51% | –
71 | GAACAATATGGGATGA (sugars k3 d10 k3, PS) | 26% | –
72 | CGTAACCATGCATTAA (sugars k3 d10 k3, PS) | 68% | –
73 | GGATTAATTCCCTTCC (sugars k3 d10 k3, PS) | 10% | –
74 | TAGCCAGTACAGTTCC (sugars k3 d1 m1 d8 k3, PS) | 70% | –
75 | CCGTTTTGGGCTAATG (sugars k3 d10 k3, PS) | 58% | –
76 | TGCTTTAGCTTAAACT (sugars k3 d10 k3, PS) | 51% | –
77 | CATATCAATGCCTTAG (sugars k3 d10 k3, PS) | 29% | –
78 | TAGTGTAGAATTGTCT (sugars k3 d10 k3, PS) | 46% | –

Row | Sequence | target mRNA inhibition (1 µM) | also measured
79 | TAAGAGGCATGAAAGG (sugars kkdddddddddkekek, PS) | 54% | –
80 | CGATCCTATATACATC (sugars k3 d9 k3 e1, PS) | 29% | –
81 | GTTGAGATAAAGCTGC (sugars kkdddddddddkekek, PS) | 40% | –
82 | TCTTAGCTGTGCACTC (sugars kkdddddddddkekek, PS) | 50% | –
83 | ATATACATCAACTCCT (sugars k3 d10 k3, PS) | 43% | –
84 | AATACGACTTCCTTCT (sugars k3 d10 k3, PS) | 26% | –
85 | GGGAGGTAGCTTTTGT (sugars kkdddddddddkekek, PS) | 66% | –
86 | ATAGATCCTTTTTTGG (sugars k3 d10 k3, PS) | 6% | –
87 | GCCCTTAAGTCATTTT (sugars k3 d10 k3, PS) | 25% | –
88 | AGCAGAATTGTGAACG (sugars k3 d1 m1 d8 k3, PS) | 51% | –
89 | TCCGTTATAAGTTTCA (sugars k3 d10 k3, PS) | 65% | –
90 | AATCCCAACCAAACTT (sugars kkdddddddddkekek, PS) | 17% | –
91 | AGTAATTCTAAACTAG (sugars k3 d10 k3, PS) | 31% | –
92 | GCATGCGCAGTGACGC (sugars k3 d10 k3, PS) | 36% | –
93 | ATATGGGATGAGGTAA (sugars k3 d10 k3, PS) | 37% | –
94 | GTATAGCTGCATTTCT (sugars k3 d10 k3, PS) | 35% | –
95 | CACCGTTTTGGGCTAA (sugars k3 d9 k3 e1, PS) | 71% | –
96 | GAATCATTAAGCTTAG (sugars k3 d10 k3, PS) | 63% | –
97 | GCTGCATTAATGCCAC (sugars k3 d10 k3, PS) | 46% | –
98 | CCACATACGCATGCGC (sugars k3 d10 k3, PS) | 68% | target mRNA inhibition (0.02 µM): 3%; target mRNA inhibition (0.078 µM): 1%; target mRNA inhibition (0.313 µM): 43%; target mRNA inhibition (1.25 µM): 63%; target mRNA inhibition (5 µM): 88%
99 | GCTACTTGAACAGTCT (sugars k3 d9 k3 e1, PS) | 60% | –
100 | TTAGATTGCATAAGAG (sugars k3 d10 k3, PS) | 61% | –
101 | GTAATAGCCAGTACAG (sugars k3 d9 k3 e1, PS) | 62% | –
102 | TGTACCAAACTTGCCC (sugars k3 d10 k3, PS) | 53% | –
